Measured values published in paper PMC11149917, “Translational and Therapeutic Evaluation of RAS-GTP Inhibition by RMC-6236 in RAS-Driven Cancers” (Cancer Discovery, 2024).
“And” between values parts separate entries of the source, which are not always exact repeats. Equal values may be shown once.

Tests used:
[1] = test system: CC3 in Capan-2 xenograft tumors; assay: IHC whole-slide quantification; type: in vivo, mouse; details: control 3.0
Experimental: All tissues were fixed for up to 24 hours using 10% neutral buffered formalin and then moved to 70% ethanol for long-term storage. FFPE sections (4 µm) were stained on the Biocare intelliPATH automated staining platform using the manufacturer’s recommended settings.
All tissue sections were incubated with Biocare Peroxidase Blocker (Biocare, cat no. PX968) and Background Punisher (Biocare, cat no. BP974M) to block nonspecific background. MACH4 HRP-polymer Detection System (Biocare, cat no. MRH534) was used to detect rabbit primary antibodies.
DAB-stained slides were scanned and digitized with a Huron TissueScope LE120 whole-slide scanner at 200× magnification.
The EpCAM staining was used to identify epithelial cells. First, the area to be analyzed was delineated, excluding necrotic regions. The random forest tumor classifier from the HALO Image Analysis package was used to identify the tumor compartment. Three classes were created: glass, tumor (EpCAM-positive), and stroma. The tumor class mark was then copied onto the serial sections stained with various markers to perform the image analysis only on the tumor compartment.

[2] = test system: DUSP6 mRNA in HPAC xenograft tumors; assay: In vivo PD by DUSP6 qPCR and PK/PD relationship; set-up: species or system mouse; details: for % inhibition of DUSP6 vs control: individual animals
Experimental: (§1) Tumor-bearing animals were randomized and assigned into groups (n = 1–10/group). The vehicle at 10 mL/kg or RMC-6236 at indicated doses was administered via oral gavage daily, and animals were treated for 28 days, or up to 90 days if PFS was being assessed. […] For single-dose PKPD study, mice were randomized and assigned into groups (n = 3/dose/time point). A single dose of RMC-6236 was administered orally at either 3, 10, or 25 mg/kg. Blood and tissues, including the tumor, brain, colon, ear skin, and muscle, were harvested at indicated time points. Whole blood was collected in K2EDTA Microtainer tubes, incubated for 5 minutes, and snap-frozen in liquid nitrogen. The tissue was either fixed in 10% formalin or snap-frozen in liquid nitrogen for further analysis.
(§2) RNA was extracted from at least 20 mg of tissue using an RNeasy Mini Kit (Qiagen, 74104) and a High-Throughput Tissue grinder following the manufacturer's protocol. Reverse transcription was carried out using High-Capacity cDNA Reverse Transcription Kit (ABI, 4368814) according to the manufacturer's protocol. The cDNA product was used for qPCR analysis using TaqMan Gene-Expression Master Mix (ABI, 4369016). TaqMan primer probes specific to DUSP6 (human—Hs00737962_m1, murine—Mm00518185_m1, FAM-MGB) and 18S (RNA18S1; human—Hs99999901_s1, murine—Mm03928990_g1, FAM-MGB, used as an internal control gene) were used to detect the levels from each sample in duplicates using a 10 µL final reaction volume in a 384-well clear optical reaction plate. For qPCR, Ct values of DUSP6 and 18S were obtained for analysis. DUSP6 Ct value was normalized to 18S, and then the mean relative mRNA expression levels of each group were normalized to the vehicle control group. Values were plotted as relative change in mRNA expression compared with vehicle. Means ± SEM were shown.
(§3) Concentrations of RMC-6236 in tumor or normal tissues and percentage of DUSP6 inhibition as compared with the vehicle control from individual animals were collected and analyzed post a single dose of RMC-6236 ranging from 0.3 to 100 mg/kg (Supplementary Table S6). A 3-parameter sigmoidal exposure–response model was fitted to the data in GraphPad Prism to derive EC50 and EC90 values.

[3] = test system: DUSP6 mRNA in NCI-H441 xenograft tumors; assay: In vivo PD by DUSP6 qPCR and PK/PD relationship; set-up: species or system mouse; details: Model Development Dataset
Experimental: as §1, §2, §3

With `CCn1c(-c2cc(N3CCN(C)CC3)cnc2[C@H](C)OC)c2c3cc(ccc31)-c1csc(n1)C[C@H](NC(=O)[C@H]1C[C@@H]1C)C(=O)N1CCC[C@H](N1)C(=O)OCC(C)(C)C2` [RMC-6236] the “CC3 (% positive cells)” value ([1]; Capan-2 (25 mg/kg x 7d), 8h) was 7.0%, the “CC3 (% positive cells)” value ([1]; Capan-2 (25 mg/kg x 7d), 24h) was 5.0% and the “CC3 (% positive cells)” value ([1]; Capan-2 (25 mg/kg x 7d), 48hr) was 3.7%. For the same molecule, the “CC3 (% positive cells)” value ([1]; Capan-2 (25 mg/kg), 8h) was 4.2%, the “CC3 (% positive cells)” value ([1]; Capan-2 (25 mg/kg), 24h) was 5.7% and the “CC3 (% positive cells)” value ([1]; Capan-2 (25 mg/kg), 48hr) was 6.7%. For the same molecule, the “% inhibition of DUSP6 vs control” value ([2]; HPAC #3, 50 mg/kg, 4h) was 99.6% and 99.3%, the “% inhibition of DUSP6 vs control” value ([2]; HPAC #3, 50 mg/kg, 8h) was 99.8% and 99.7% and the “% inhibition of DUSP6 vs control” value ([2]; HPAC #3, 50 mg/kg, 24h) was 99.9% and 99.8%. The “% inhibition of DUSP6 vs control” value ([2]; HPAC #3, 50 mg/kg, 48h) was 99.3% and 98% and 97.1%, the “% inhibition of DUSP6 vs control” value ([2]; HPAC #4, 3 mg/kg, 4h) was 8.1% and 58% and 27.9% and the “% inhibition of DUSP6 vs control” value ([2]; HPAC #4, 3 mg/kg, 8h) was 54.7% and 65.2% and 84.3%. For the same molecule, the “% inhibition of DUSP6 vs control” value ([2]; HPAC #4, 3 mg/kg, 24h) was 0% and 40.8% and 37.2%, the “% inhibition of DUSP6 vs control” value ([2]; HPAC #4, 3 mg/kg, 48h) was 0% and 22.7% and 33.9% and the “% inhibition of DUSP6 vs control” value ([2]; HPAC #4, 10 mg/kg, 4h) was 93.6% and 96.1% and 97.9%. For the same molecule, the “% inhibition of DUSP6 vs control” value ([2]; HPAC #4, 10 mg/kg, 8h) was 98.9% and 99.6% and 97.1%, the “% inhibition of DUSP6 vs control” value ([2]; HPAC #4, 10 mg/kg, 24h) was 80.3% and 56.7% and 91.1% and the “% inhibition of DUSP6 vs control” value ([2]; HPAC #4, 10 mg/kg, 48h) was 8.1% and 47% and 59.6%. For the same molecule, the “% inhibition of DUSP6 vs control” value ([2]; HPAC #4, 25 mg/kg, 4h) was 99.6% and 97.7% and 93.3%, the “% inhibition of DUSP6 vs control” value ([2]; HPAC #4, 25 mg/kg, 8h) was 99.9% and 99.4% and 99.8% and the “% inhibition of DUSP6 vs control” value ([2]; HPAC #4, 25 mg/kg, 24h) was 99.3% and 99.2% and 99.6%. For the same molecule, the “% inhibition of DUSP6 vs control” value ([2]; HPAC #4, 25 mg/kg, 48h) was 97.6% and 96.7% and 87.9%, the “% inhibition of DUSP6 vs control” value ([2]; HPAC #11, 0.3 mg/kg, 4h) was 0% and 41.7% and the “% inhibition of DUSP6 vs control” value ([2]; HPAC #11, 0.3 mg/kg, 8h) was 9.1% and 10.7% and 76.7%. The “% inhibition of DUSP6 vs control” value ([2]; HPAC #11, 0.3 mg/kg, 24h) was 0%, the “% inhibition of DUSP6 vs control” value ([2]; HPAC #11, 0.3 mg/kg, 48h) was 0% and the “% inhibition of DUSP6 vs control” value ([2]; HPAC #11, 1 mg/kg, 4h) was 48.3% and 77.5% and 97.1%. For the same molecule, the “% inhibition of DUSP6 vs control” value ([2]; HPAC #11, 1 mg/kg, 8h) was 86.3% and 83.8% and 49.4%, the “% inhibition of DUSP6 vs control” value ([2]; HPAC #11, 1 mg/kg, 24h) was 4.9% and 0% and 23.3% and the “% inhibition of DUSP6 vs control” value ([2]; HPAC #11, 1 mg/kg, 48h) was 24.6% and 0% and 42.3%. The EC50 ([2]; Mus musculus, HPAC, read-out: EC50, inhibition of DUSP6 expression vs RMC-6236 concentration (PK/PD relationship)) was 135 nM, the EC90 ([2]; Mus musculus, HPAC, read-out: EC90, inhibition of DUSP6 expression vs RMC-6236 concentration (PK/PD relationship)) was 925 nM and the “DUSP6 mRNA Expression (%)” value ([3]; 25mg/kg_study8, 1 h) was 30.3376%. For the same molecule, the “DUSP6 mRNA Expression (%)” value ([3]; 25mg/kg_study8, 2 h) was 11.6899%, the “DUSP6 mRNA Expression (%)” value ([3]; 25mg/kg_study8, 8 h) was 1.524% and the “DUSP6 mRNA Expression (%)” value ([3]; 25mg/kg_study8, 24 h) was 8.817%. For the same molecule, the “DUSP6 mRNA Expression (%)” value ([3]; 25mg/kg_study8r (doses every 24 h, 0-[…]), 240 h) was 3.766%, the “DUSP6 mRNA Expression (%)” value ([3]; 40mg/kg_study8, 1 h) was 65.2423% and the “DUSP6 mRNA Expression (%)” value ([3]; 40mg/kg_study8, 2 h) was 13.6285%. The “DUSP6 mRNA Expression (%)” value ([3]; 40mg/kg_study8, 8 h) was 4.661% and the “DUSP6 mRNA Expression (%)” value ([3]; 40mg/kg_study8, 24 h) was 3.474%.
